The values that follow come from PubChem BioAssay AID624254 (Broad Institute, 2012).

Calls of active or inactive are those of the source. No rule for the calls is given here.

The experiment in a line: Luciferase light induction in v cholerae bh1651, agonist dose response, confirmatory (AID 624254). The following applies: V. cholerae BH1651 luxOD47E, luciferase light induction, 6 h; at 50 µM (top of the series).
Regarding `O=C(O)c1cn[nH]c1-n1cnnn1`, the “activation (light increase)” value is “inactive”. For the compound `CCCCNC(=O)Nc1cc(C)on1`, the “activation (light increase)” value was “inactive”.

Regarding `O=c1c2ccccc2nnn1CSc1nnc(-c2cccnc2)n1-c1ccccc1F`, the “activation (light increase)” value was “inactive”. Next, `O=Cc1cc(OCc2ccccc2)ccc1B(O)O`: “inactive”; `C[C@H](NC(=O)c1ccco1)C(=O)Nc1ccc(S(=O)(=O)N2CCCC2)cc1`: “inactive”. Next, `Cc1cc(C)cc(OC(=O)c2cccnc2)c1`: “inactive”; `CCOC(=O)c1c(C)[nH]c(C(=O)COC(=O)C2(C)CC2(Cl)Cl)c1C` (stereo not drawn): “inactive”; `Cn1ccnc1S(=O)(=O)Nc1ccc(OC(F)(F)F)cc1`: “inactive”. Next, `CCCCN(Cc1nc2ccccc2c(=O)[nH]1)C(=O)CN1C(=O)NC2(CCCCC2)C1=O`: “inactive”. For `Cc1cccc(N(CC(N)=O)C2SC(=O)N(c3ccccc3)C2=O)c1` (stereo not drawn), the “activation (light increase)” value was “inactive”. `CCC(C)NS(=O)(=O)c1ccc(S(=O)(=O)Nc2cc3c(cc2C(C)=O)OCO3)cc1` (stereo not drawn): the “activation (light increase)” value is “inactive”. As for `COc1cc(SC)ccc1C(=O)OCC(=O)NC1CCCC1`, the “activation (light increase)” value is “inactive”.

Turning to `COc1ccc(OCC(=O)NC2CCCN(Cc3ccc(Cl)cc3)C2)cc1` (stereo not drawn), the “activation (light increase)” value was “inactive”. Next, `Cc1cc(NC2CCCCC2)nc(-c2ccccc2O)n1`: “inactive”; `Cc1cc(C(=O)OCC(=O)NC2CCCCC2)c(C)o1`: “inactive”.

Regarding `Cc1cccc(C(=O)NCC(c2cccs2)N2CCOCC2)c1` (stereo not drawn), the “activation (light increase)” value was “inactive”. Next, `COC(C(=O)Nc1ccccc1C(=O)N1CCOCC1)c1ccccc1` (stereo not drawn): “inactive”. As for `COc1ccc(CCN(C)C(=O)c2cc(S(=O)(=O)N3CCCCCC3)ccc2OC)cc1OC`, the “activation (light increase)” value is “inactive”. Regarding `COc1ccc(Cl)cc1NC(=O)CN1CCc2ccccc2C1`, the “activation (light increase)” value was “inactive”. To `COCCCNC(=O)c1ccc2c(=O)n(C3CCCC3)c(=S)[nH]c2c1` belongs “inactive”. For the compound `CN(C)S(=O)(=O)c1cccc(NC(=O)COC(=O)c2ccc(Br)o2)c1`, the “activation (light increase)” value was “inactive”. Next, `O=C(NCC1CCCO1)C1CCN(C(=O)c2ccc(Cl)cc2)CC1` (stereo not drawn): “inactive”. To `Cc1ccc(C(=O)OCC(=O)Nc2ccccc2)cc1NC(=O)c1ccco1` belongs “inactive”; to `COC(=O)Nc1ccc(S(=O)(=O)NCCO)cc1`, “inactive”; to `FC(F)Oc1ccccc1NC(=S)NCc1ccco1`, “inactive”. Next, `Cn1cnc(S(=O)(=O)Nc2ccccc2F)c1`: “inactive”; `O=C(Cc1ccc(-c2ccccc2)cc1)NC1CCCC1`: “inactive”. As to `CC(C)NC(=O)c1cnc(Sc2ncc(C(F)(F)F)cc2Cl)n1C`, the “activation (light increase)” value is “inactive”. In the case of `Cn1c(CCNC(=O)c2ccco2)nc2cc(NC(=O)NC3CCCCC3)ccc21`, the “activation (light increase)” value was “inactive”.

As for `Cc1ccc(-c2cc(C(=O)N3N=C(C(F)F)CC3(O)C(F)F)c3ccccc3n2)cc1C` (stereo not drawn), the “activation (light increase)” value is “inactive”. On to `CCS(=O)(=O)N1CCN(C(=O)CCC2CCCC2)CC1`, for which the “activation (light increase)” value is “inactive”. With `C[C@H]1CN([C@@H](C)CO)C(=O)c2cccc(NC(=O)C3CC3)c2O[C@@H]1CN(C)S(=O)(=O)c1cccs1`, the “activation (light increase)” value is “inactive”.

Regarding `COc1ccc(Cl)cc1NC(=O)CN(C)C(=O)CNC(=O)C12CC3CC(CC(C3)C1)C2`, the “activation (light increase)” value was “inactive”. Next, `C[C@@H]1CN([C@H](C)CO)C(=O)c2cccc(NC(=O)Nc3ccc4c(c3)OCO4)c2O[C@H]1CN(C)S(=O)(=O)c1ccccc1`: “inactive”.

In the case of `O=C(Nc1cccc(-c2ccc(N3CCOCC3)nn2)c1)c1ccc([N+](=O)[O-])cc1`, the “activation (light increase)” value is “inactive”.

On to `COc1ccc(S(=O)(=O)N2CCSC2c2ccc(N)cc2)cc1` (stereo not drawn), for which the “activation (light increase)” value was “inactive”. To `Cn1c(=O)oc2cc(S(=O)(=O)N3CCN(c4ccc(F)cc4)CC3)ccc21` belongs “inactive”.

With `Cc1ccccc1C(=O)Nc1cccc(N)c1`, the “activation (light increase)” value was “inactive”.

Regarding `O=C(NCC(F)(F)F)Nc1ncccn1`, the “activation (light increase)” value is “inactive”.

As for `COc1ccccc1NC(=O)COC(=O)c1cc2c(s1)CCC2`, the “activation (light increase)” value is “inactive”. Next, `CCCCc1cc2c(cc1NC(=O)CN1CCCCC1)OCCO2`: “inactive”; `O=C(COC(=O)c1ccc(O)cc1)c1ccc2c(c1)OCCO2`: “inactive”.

As for `O=C(c1cn(-c2ccccc2)nc1-c1cccs1)N1CCOCC1`, the “activation (light increase)” value is “inactive”. As for `O=C(Cc1ccc2c(c1)CCCC2)Nc1ccccc1Br`, the “activation (light increase)” value was “inactive”. To `O=C(c1ccccc1)N1CCC(c2nc(-c3ccc(S(=O)(=O)N4CCOCC4)cc3)no2)CC1` belongs “inactive”; to `O=S(=O)(Nc1ccccn1)c1ccc(Oc2ccccc2)cc1`, “inactive”; to `COC(=O)c1ccc(CSc2nnc3c(Cl)cc(Cl)cn23)o1`, “inactive”. To `O=C(Oc1nsnc1N1CCCCC1)N1CCOCC1` belongs “inactive”; to `O=c1c2ccccc2nnn1CSc1nnc2ccccn12`, “inactive”; to `O=c1c2c3c(sc2ncn1Cc1ccc(F)cc1)CCC3`, “inactive”. Regarding `Cc1cccc(OCC(=O)N(C)CCc2ccccn2)c1`, the “activation (light increase)” value was “inactive”. Next, `CCOc1ccc(CNC(=O)Cn2c(=O)c3cccn3c3ccccc32)cc1`: “inactive”; `CC1(C(=O)N2CCN(c3ccc([N+](=O)[O-])cc3)CC2)CC1(Cl)Cl` (stereo not drawn): “inactive”. To `COc1ccc(N(CC(=O)NC2CCCCC2)C(=O)CNC(=O)c2ccco2)c(OC)c1` belongs “inactive”. Next, `O=[N+]([O-])c1ccc(NCCN2CCOCC2)c([N+](=O)[O-])c1`: “inactive”. Take `CCC(=O)NCCc1nc(-c2ccccc2)no1`: the “activation (light increase)” value was “inactive”. Next, `CC(C)CNC(=O)c1c2c(nc3ccccc13)-c1ccccc1CC2`: “inactive”.

For `Cn1c(CNc2cccc(Cl)c2)nnc1SCC(=O)OC1CCCCC1`, the “activation (light increase)” value is “inactive”. With `COc1ccc(S(=O)(=O)Nc2ccc(S(=O)(=O)N3CCOCC3)cc2)cc1C`, the “activation (light increase)” value was “inactive”.

With `CC(=O)c1cccc(NC(=O)CSc2nc(=O)n(CCN3CCOCC3)c3c2CCCC3)c1`, the “activation (light increase)” value is “inactive”. To `O=C(O)C1C2CCC(C2)C1C(=O)Nc1cc(F)ccc1F` (stereo not drawn) belongs “inactive”. To `CCCn1nnnc1SCC(=O)c1ccc2c(c1)OCCO2` belongs “inactive”. To `COc1cc(C(=O)Nc2ccc(NC(=O)C(C)C)nc2)cc(OC)c1OC` belongs “inactive”; to `C=Cn1c(C(=O)O)ccc1-c1cccs1`, “inactive”; to `O=C(/C=C/c1ccc(OCCCF)cc1)NCc1ccc(Cl)cc1`, “inactive”. Consider `Cc1ccc(C)n1-c1sc2c(c1C#N)CCC(C)C2` (stereo not drawn), for which the “activation (light increase)” value is “inactive”. Consider `CCCOC(=O)c1ccc(NC(=O)C2CCCO2)cc1` (stereo not drawn), for which the “activation (light increase)” value was “inactive”. To `CN(Cc1cn[nH]c1-c1cc2ccccc2o1)CC1CCOCC1` belongs “inactive”; to `Cc1cc(OC(F)F)ccc1NC(=S)NCCc1ccccc1`, “inactive”; to `Cc1cc(COc2ccccc2O)on1`, “inactive”. Next, `N#Cc1nc(-c2ccc(OCc3ccc(Cl)cc3)cc2)oc1NCc1cccnc1`: “inactive”; `Cc1ccc(C)c(OCCC(=O)OCC(=O)NC2CC2)c1`: “inactive”. As for `COc1ccccc1N1CCN(C(=O)c2cc3c(s2)CCC3)CC1`, the “activation (light increase)” value is “inactive”. To `CCCC(=O)NC1CCCc2c1cnn2-c1ccc(C)c(C)c1` (stereo not drawn) belongs “inactive”; to `COc1ccccc1NC(=O)Cc1csc(NC(=S)Nc2ccccc2)n1`, “inactive”.

With `C=CCn1c(=O)c(C(=O)NC(C)c2ccccc2)c(O)c2ccccc21` (stereo not drawn), the “activation (light increase)” value was “inactive”. Next, `C[C@H](CO)N1C[C@H](C)[C@H](CN(C)S(=O)(=O)c2cccs2)Oc2c(NC(=O)C3CC3)cccc2C1=O`: “inactive”. For the compound `COc1ccc(S(=O)(=O)N(C)C[C@H]2Oc3c(NC(=O)Nc4ccc5c(c4)OCO5)cccc3C(=O)N([C@H](C)CO)C[C@@H]2C)cc1`, the “activation (light increase)” value is “inactive”. Next, `CCCCOc1ccc(NS(=O)(=O)c2cn(C)cn2)cc1`: “inactive”. Next, `Cc1csc(NC(=O)Cc2nn(C)c(=O)c3ccccc23)n1`: “inactive”. To `Cc1ccc(C)c(N2CCN(C(c3ccc(N(C)C)cc3)c3nnnn3C(C)(C)C)CC2)c1` (stereo not drawn) belongs “inactive”. Turning to `CCC(O)(CCN1CCCCC1)c1ccccc1` (stereo not drawn), the “activation (light increase)” value is “inactive”. Next, `CCCOc1ccc(-c2nc(C#N)c(N3CCN(CC)CC3)o2)cc1`: “inactive”; `C=Cn1c(C(=O)O)ccc1-c1ccc(Cl)cc1`: “inactive”; `O=S(=O)(Cc1ccc(Cl)cc1)N1CCN(Cc2ccccc2)CC1`: “inactive”. To `CCCc1cc(Nc2ccccc2OCC)n2ncnc2n1` belongs “inactive”; to `CCCNC(=O)Cc1ccsc1`, “inactive”. Next, `O=C(c1cc2cc(Cl)ccc2oc1=O)N1CCCC1`: “inactive”.
